These results are taken from patent US20030229067A1, “Pyrrolopyrimidine A2b selective antagonist compounds, their synthesis and use” (priority 2001, published 2003).

A word on the melting point: it is the temperature of the solid-liquid transition.

SMILES strings stand for the structures.

Consider `CC(=O)NCCNc1nc(-c2ccccc2)nc2[nH]c(C(=O)N3CC=C(c4ccc(Cl)cc4)CC3)cc12` [26.13, N-(2-{6-[4-(4-Chlorophenyl)-3,6-dihydro-2H-pyridine-17carbonyl]-2-phenyl-7H-pyrrolo[2,3-d]pyrimidin-4-ylamino}-ethyl)-acetamide], for which the melting point lay within 172 to 175 °C. Turning to `CC(=O)NCCNc1nc(-c2ccccc2)nc2[nH]c(C(=O)N3CCN(Cc4ccccc4)CC3)cc12` [26.14, N-{2-[6-(4-Benzylpiperazine-1-carbonyl)-2-phenyl-7H-pyrrolo[2,3-d]pyrimidin-4-ylamino]-ethyl}-acetamide], the melting point was 235 to 240 °C (dec.). In the case of `NC(=O)CNc1nc(-c2ccccc2)nc2[nH]c(C(=O)N3CCN(CCCc4ccccc4)CC3)cc12` [26.15, 2-{2-Phenyl-6-[4-(3-phenylpropyl)-piperazine-1-carbonyl]-7H-pyrrolo[2,3-d]pyrimidin-4-ylamino}-acetamide], the melting point lay in the range of 213 to 217 °C. Next, `CC(=O)NCCNc1nc(-c2ccccc2)nc2[nH]c(C(=O)N3CCN(CCOc4ccc(Cl)cc4)CC3)cc12` [26.16, N-[2-(6-{4-[2-(4-Chlorophenoxy)-ethyl]-piperazine-1-carbonyl}-2-phenyl-7H-pyrrolo[2,3-d]pyrimidin-4-ylamino)-ethyl]-acetamide]: 227 to 228 °C; `CC(=O)NCCNc1nc(-c2ccccc2)nc2[nH]c(C(=O)NC3CC4CCC3C4)cc12` (stereo not shown) [26.17]: 280 to 285 °C (dec.). As for `CC(=O)NCCNc1nc(-c2ccccc2)nc2[nH]c(C(=O)N3CCC(O)(c4ccc(F)cc4)CC3)cc12` [26.18, N-(2-{6-[4-(4-Fluorophenyl)4-hydroxypiperidine-1-carbonyl]-2-phenyl-7H-pyrrolo[2,3-d]pyrimidin-4-ylamino}-ethyl)-acetamide], the melting point lay within 150 to 153 °C.

Turning to `CC(=O)NCCNc1nc(-c2ccccc2)nc2[nH]c(C(=O)N3CCC(C#N)(c4ccccc4)CC3)cc12` [26.19, N-{2-[6-(4-Cyano-4-phenylpiperidine-1-carbonyl)-2-phenyl-7H-pyrrolo[2,3-d]pyrimidin-4-ylamino]-ethyl}-acetamide], the melting point is 150 to 155 °C (dec.).

In turn, `CC(=O)NCCNc1nc(-c2ccccc2)nc2[nH]c(C(=O)Nc3cccc(Oc4ccccc4)c3)cc12` [26.20, 4-(2-Acetylaminoethylamino)-2-phenyl-7H-pyrrolo[2,3-d]pyrimidine-6-carboxylic acid (3-phenoxyphenyl)-amide] came in with a melting point of 140 to 142 °C. The figure for `CC(=O)NCCNc1nc(-c2ccccc2)nc2[nH]c(C(=O)N3CCN(CC#Cc4ccccc4)CC3)cc12` [26.21, N-(2-{2-Phenyl-6-[4-(3-phenylprop-2-ynyl)-piperazine-1-carbonyl]-7H-pyrrolo[2,3-d]pyrimidin-4-ylamino}-ethyl)-acetamide] is 213 to 215 °C.

As to `CC(=O)NCCNc1nc(-c2ccccc2)nc2[nH]c(C(=O)N3C[C@@H](C)N[C@@H](C)C3)cc12` [26.22, N-{2-[6-(cis-3,5-Dimethylpiperazine-1-carbonyl)-2-phenyl-7H-pyrrolo[2,3-d]pyrimidin-4-ylamino]-ethyl}-acetamide], the melting point fell in the range of 138 to 140 °C. Next, `CC(=O)NCCNc1nc(-c2ccccc2)nc2[nH]c(C(=O)N3C[C@@H](C)N(CCCc4ccccc4)[C@@H](C)C3)cc12` [26.24, N-(2-{6-[cis-3,5-Dimethyl-4-(3-phenylpropyl)-piperazine-1-carbonyl]-2-phenyl-7H-pyrrolo[2,3-d]pyrimidin-4-ylamino}-ethyl)-acetamide]: 86 to 89 °C; `CC(=O)NCCNc1nc(-c2ccccc2)nc2[nH]c(C(=O)N3CCC(c4ccccc4)(c4ccccc4)CC3)cc12` [26.25, N-{2-[6-(4,4-Diphenylpiperidine-1-carbonyl)-2-phenyl-7H-pyrrolo[2,3-d]pyrimidin-4-ylamino]-ethyl}-acetamide]: 254 to 256 °C; `CC(=O)NCCNc1nc(-c2ccccc2)nc2[nH]c(C(=O)N3CCCC(c4ccccc4)(c4ccccc4)C3)cc12` [26.26, N-{2-[6-(3,3-Diphenylpiperidine-1-carbonyl)-2-phenyl-7H-pyrrolo[2,3-d]pyrimidin-4-ylamino]-ethyl}-acetamide]: 156 to 159 °C (dec.).

For the compound `COC1(c2ccccc2)CCN(C(=O)c2cc3c(NCCNC(C)=O)nc(-c4ccccc4)nc3[nH]2)CC1` [26.27, N-{2-[6-(4-Methoxy-4-phenylpiperidine-1-carbonyl)-2-phenyl-7H-pyrrolo[2,3-d]pyrimidin-4-ylamino]-ethyl}-acetamide], the melting point fell in the range of 135 to 138 °C. `CC(=O)NCCNc1nc(-c2ccccc2)nc2[nH]c(C(=O)N3CCC(Cc4ccc(F)cc4)CC3)cc12` [26.28, N-(2-{6-[4-(4-Fluorobenzyl)-piperidine-1-carbonyl]-2-phenyl-7H-pyrrolo[2,3-d]pyrimidin-4-ylamino}-ethyl)-acetamide]: the melting point is 283 to 284 °C (dec.).

`CC(=O)NCCNc1nc(-c2ccccc2)nc2[nH]c(C(=O)N3CCC(C(O)c4ccc(F)cc4)CC3)cc12` (stereo not shown) [26.29]: the melting point was 135 to 145 °C (dec.).

The compound `CC(=O)NCCNc1nc(-c2ccccc2)nc2[nH]c(C(=O)N3C[C@@H](C)N(CCCc4ccccc4)C[C@@H]3C)cc12` [26.30] registered a melting point of 98 to 100 °C. The figure for `CC(=O)NCCNc1nc(-c2ccccc2)nc2[nH]c(C(=O)N3C[C@@H](C)N(Cc4ccccc4)[C@@H](C)C3)cc12` [26.32] is 196 to 198 °C. The figure for `CC(=O)NCCNc1nc(-c2ccccc2)nc2[nH]c(C(=O)N3C[C@@H](C)N(CCc4ccccc4)[C@@H](C)C3)cc12` [26.33, N-{2-[6-(cis-3,5-Dimethyl-4-phenethylpiperazine-1-carbonyl)-2-phenyl-7H-pyrrolo[2,3-d]pyrimidin-4-ylamino]-ethyl}-acetamide] is 110 to 115 °C (dec.). Consider `CC(=O)NCCNc1nc(-c2ccccc2)nc2[nH]c(C(=O)N3CCN(c4ccccn4)CC3)cc12` [26.35, N-{2-[2-Phenyl-6-(4-pyridin-2-yl-piperazine-1-carbonyl)-7H-pyrrolo[2,3-d]pyrimidin-4-ylamino]-ethyl}-acetamide], for which the melting point was 223 to 226 °C (dec.). The figure for `CC(=O)NCCNc1nc(-c2ccccc2)nc2[nH]c(C(=O)N3CCCC(C)(c4ccccc4)C3)cc12` (stereo not shown) [26.36, N-{2-[6-(3-Methyl-3-phenylpiperidine-1-carbonyl)-2-phenyl-7H-pyrrolo[2,3-d]pyrimidin-4-ylamino]-ethyl}-acetamide] is 140 to 145 °C; for `CC(=O)NCCNc1nc(-c2ccccc2)nc2[nH]c(C(=O)N3CCN(c4ncccc4C(F)(F)F)CC3)cc12` [26.37, N-(2-{2-Phenyl-6-[4-(3-trifluoromethylpyridin-2-yl)-piperazine-1-carbonyl]-7H-pyrrolo[2,3-d]pyrimidin-4-ylamino}-ethyl)-acetamide] it is 225 to 228 °C; for `CC(=O)NCCNc1nc(-c2ccccc2)nc2[nH]c(C(=O)N3CCN(c4ccc(F)cc4)CC3)cc12` [26.38, N-(2-{6-[4-(4-Fluorophenyl)-piperazine-1-carbonyl]-2-phenyl-7H-pyrrolo[2,3-d]pyrimidin-4-ylamino}-ethyl)-acetamide] it is 234 °C. Next, `CC(=O)NCCNc1nc(-c2ccccc2)nc2[nH]c(C(=O)N3CCN(c4ccc(C(F)(F)F)cn4)CC3)cc12` [26.39, N-(2-{2-Phenyl-6-[4-(5-trifluoromethylpyridin-2-yl)-piperazine-1-carbonyl]-7H-pyrrolo[2,3-d]pyrimidin-4-ylamino}-ethyl)-acetamide]: 270 to 273 °C. The figure for `COC1(c2ccc(F)cc2)CCN(C(=O)c2cc3c(NCCNC(C)=O)nc(-c4ccccc4)nc3[nH]2)CC1` [26.48, N-(2-{6-[4-(4-Fluorophenyl)4-methoxypiperidine-1-carbonyl]-2-phenyl-7H-pyrrolo[2,3-d]pyrimidin-4-ylamino}-ethyl)-acetamide] is 134 to 137 °C; for `CC(=O)NCCNc1nc(-c2ccccc2)nc2[nH]c(C(=O)N3CCC4(CC3)CCN(Cc3ccccc3)C4=O)cc12` [26.49, N-{2-[6-(2-Benzyl-1-oxo-2,8-diazaspiro[4.5]decane-8-carbonyl)-2-pheny1-7H-pyrrolo[2,3-d]pyrimidin-4-ylamino]-ethyl}-acetamide] it is 140 °C (dec.). Turning to `COC1(c2ccccc2Cl)CCN(C(=O)c2cc3c(NCCNC(=O)c4cc5c(NCCNC(C)=O)nc(-c6ccccc6)nc5[nH]4)nc(-c4ccccc4)nc3[nH]2)CC1` [26.51, 4-(2-Acetylaminoethylamino)-2-phenyl-7H-pyrrolo[2,3-d]pyrimidine-6-carboxylic acid (2-{6-[4-(2-chlorophenyl)-4-methoxypiperidine-1-carbonyl]-2-phenyl-7H-pyrrolo[2,3-d]pyrimidin-4-ylamino}-ethyl)-amide], the melting point was 180 to 185 °C (dec.).

In the case of `CC(=O)NCCNc1nc(-c2ccccc2)nc2[nH]c(C(=O)N3CCC(Cc4ccccc4)CC3)cc12` [26.54, N-{2-[6-(4-Benzylpiperidine-1-carbonyl)-2-phenyl-7H-pyrrolo[2,3-d]pyrimidin-4-ylamino]-ethyl}-acetamide], the melting point lay in the range of 260 to 261 °C.
